Assay results as given in patent US20230286925A1, “PHENYL TRIAZOLE MLL1-WDR5 PROTEIN-PROTEIN INTERACTION INHIBITOR” (HUYABIO International, LLC, priority 2022, published 2023).
Where two headings read alike, the source gives them in different places.

Experiments:
MV-411 cells = experiment: Anti-proliferative activity against leukemia cells (CellTiterGlo viability, 72 hrs); type: cell-based
Experimental: Procedure: MV-411 or Molm-13 cells were seeded into 384 well plates at 2000 cells/well density in 50 uL according plate map and were allowed to naturally sediment by waiting about 30 min in Clean Bench. Next, plated cells were centrifuged for 1 min at 1000 rpm and the excess cells were transferred into the flasks for further culture. Cells in the assay plates were incubated (at least 4 hrs) at 37° C., 5% CO2 for next process followed by adding the compounds as the plate map indicated. The tests were performed in duplicates with treatment of compounds at 10 pts 3 fold titration in 384 well plates. Taxol was as positive control while DMSO as negative control. To rule out edge effect, the wells on the edge were not seeded and therefore one 384 well plate holds 13 compounds. Cells viability was measured 72 hrs after incubation with compounds and using CellTiterGlo (promega) viability assay according to manufactory's instruction to check the ATP production in each well.
Experiments on anti-proliferative activity against leukemia cells were conducted with some of the compounds of the invention.

[1] = target: MLL1-WDR5 protein-protein interaction (Homo sapiens (Human), UniProt P61964); experiment: WDR5 TR-FRET assay of inhibition against MLL1-WDR5 protein-protein interaction; type: binding
Experimental: WDR5 TR-FRET Assay Procedure: Stock compounds were transferred to the assay plate by Echo Liquid Handler. Reactions were performed in the assay buffer (1×PBS, 300 mM NaCl, 0.5 mM TCEP, 0.1% CHAPS) containing 5 nM WDR5 protein, 10 nM peptide (Ac-ARTEVHLRKS-[Ahx-Ahx] [C]-Alexa Fluor 488-NH2) and 0.25 nM Tb-anti His antibody (Tb-Ab) in 384-well white plate (PerkinElmer) with a final volume of 20 μl. Compounds were incubated with WDR5 protein for 30 min at room temperature. Plates were covered, protected from light and incubated for 60 min at room temperature after adding the peptide and Tb-Ab. EnVision Multimode Plate Reader (PerkinElmer) was used for the TR-FRET assay with excitation wavelength at 340 nm and emission wavelength at 495 and 520 nm. The ratio of the 520/495 wavelengths were used to assess the degree of the FRET signal. IC50 was calculated by fitting the inhibition data using XLfit software to sigmoidal dose-response model.
Biphenyl compound DDO-2084 was reported to be a small molecule inhibitor that can inhibit MLL1-WDR5 protein-protein interaction, reduce MLL1 enzyme catalytic activity, and downregulate the expression of Hox and Meis-1 genes (Eur. J. Med. Chem. 2016, 124, 480-489). DDO-2084 is used as a positive control compound.

[2] = MV4-11, MV-411 human acute monocytic leukemia cell, Table 7
[3] = Table 7, read-out: WDR5 TR-FRET Assay (IC50 nM)
[4] = MV4-11, MV-411 human acute monocytic leukemia cell, Table 6

Compound	GI50 (MV-411 cells; [2]) [µM]	IC50 [1, 3] [nM]	GI50 (MV-411 cells; [4]) [µM]	also measured
1-(3-(5-amino-2-chloro-4-fluoro-3-methylbenzamido)-4-(4-methylpiperazin-1-yl)phenyl)-N-(2-ethoxyethyl)-1H-1,2,3-triazole-4-carboxamide [HYBI_002]				GI50 (MV-411 cells; MV-411 human acute monocytic leukemia cell, Table 6): 6.31 µM; IC50 ([1]; WDR5 TR-FRET, 5 nM WDR5 protein, 10 nM peptide, read-out: MLL1-WDR5 PPI inhibitory activity): 44.2 nM
C[C@H]1CN(c2cc(F)c(-c3ccc(C(=O)N(C)C)cc3)cc2Nc2ncnc(Cl)c2N)CCN1C [DDO-2213_001, (S)-5′-((5-amino-6-chloropyrimidin-4-yl)amino)-4′-(3,4-dimethylpiperazin-1-yl)-2′-fluoro-N,N-dimethyl-[1,1′-biphenyl]-4-carboxamide]	11.6	11.1		
C[C@@H]1CN(c2cc(F)c(-c3ccc(C(=O)N(C)C)cc3)cc2Nc2ncnc(Cl)c2N)C[C@H](C)N1C [DDO-2213_002, 4-[5-[(5-amino-6-chloro-pyrimidin-4-yl)amino]-2-fluoro-4-[(3R,5S)-3,4,5-trimethylpiperazin-1-yl]phenyl]-N,N-dimethyl-benzamide]	15.6	55.5		
CN1CCCN(c2cc(F)c(-c3ccc(C(=O)N(C)C)cc3)cc2Nc2ncnc(Cl)c2N)CC1 [DDO-2213_003, 5′-((5-amino-6-chloropyrimidin-4-yl)amino)-2′-fluoro-N,N-dimethyl-4′-(4-methyl-1,4-diazepan-1-yl)-[1,1′-biphenyl]-4-carboxamide]	59.9	395		
CC(C)NC(=O)c1ccc(-c2cc(Nc3ncnc(Cl)c3N)c(N3C[C@@H](C)N(C)[C@@H](C)C3)cc2F)cc1 [DDO-2213_004, 5′-((5-amino-6-chloropyrimidin-4-yl)amino)-2′-fluoro-N-isopropyl-4′-((3S,5R)-3,4,5-trimethylpiperazin-1-yl)-[1,1′-biphenyl]-4-carboxamide]	14.8	68.8		
C[C@H]1CN(c2cc(F)c(-c3ccc(NC(=O)C4CCCCC4)cc3)cc2Nc2ncnc(Cl)c2N)CCN1C [DDO-2213_005, (S)—N-(5′-((5-amino-6-chloropyrimidin-4-yl)amino)-4′-(3,4-dimethylpiperazin-1-yl)-2′-fluoro-[1,1′-biphenyl]-4-yl)cyclohexanecarboxamide]	3.37	11.1		
C[C@@H]1CN(c2cc(F)c(-c3ccc(NC(=O)C4CCCCC4)cc3)cc2Nc2ncnc(Cl)c2N)C[C@H](C)N1C [DDO-2213_006, N-(5′-((5-amino-6-chloropyrimidin-4-yl)amino)-2′-fluoro-4′-((3S,5R)-3,4,5-trimethylpiperazin-1-yl)-[1,1′-biphenyl]-4-yl)cyclohexanecarboxamide]	6.09	38.6		
CCCC(=O)Nc1ccc(-c2cc(Nc3ncnc(Cl)c3N)c(N3C[C@@H](C)N(C)[C@@H](C)C3)cc2F)cc1 [DDO-2213_007, N-(5′-((5-amino-6-chloropyrimidin-4-yl)amino)-2′-fluoro-4′-((3S,5R)-3,4,5-trimethylpiperazin-1-yl)-[1,1′-biphenyl]-4-yl)butyramide]	11.5	51.3		
C[C@H]1CN(c2cc(F)c(-c3ccnc(OCC4CC4)c3)cc2Nc2ncnc(Cl)c2N)CCN1C [DDO-2213_008, (S)-6-chloro-N4-(5-(2-(cyclopropylmethoxy)pyridin-4-yl)-2-(3,4-dimethylpiperazin-1-yl)-4-fluorophenyl)pyrimidine-4,5-diamine]	4.76	8.63		
C[C@@H]1CN(c2cc(F)c(-c3ccnc(OCC4CC4)c3)cc2Nc2ncnc(Cl)c2N)C[C@H](C)N1C [DDO-2213_009, 6-chloro-N4-(5-(2-(cyclopropylmethoxy)pyridin-4-yl)-4-fluoro-2-((3S,5R)-3,4,5-trimethylpiperazin-1-yl)phenyl)pyrimidine-4,5-diamine]	1.69	33.9		
C[C@@H]1CN(c2cc(F)c(-n3cc(C(=O)N4CCOCC4)nn3)cc2Nc2ncnc(Cl)c2N)C[C@H](C)N1C [DDO-2213_010, (1-(5-((5-amino-6-chloropyrimidin-4-yl)amino)-2-fluoro-4-((3S,5R)-3,4,5-trimethylpiperazin-1-yl)phenyl)-1H-1,2,3-triazol-4-yl)(morpholino)methanone]	7.93	250		
C[C@H]1CN(c2ccc(-c3ccc(C(=O)NCCN4CCOCC4)cc3)c(F)c2Nc2ncnc(Cl)c2N)CCN1C [DDO-2213_012, (S)-3′-((5-amino-6-chloropyrimidin-4-yl)amino)-4′-(3,4-dimethylpiperazin-1-yl)-2′-fluoro-N-(2-morpholinoethyl)-[1,1′-biphenyl]-4-carboxamide]	104	56.4		
C[C@@H]1CN(c2ccc(-c3ccc(NC(=O)C4CCCCC4)cc3)c(F)c2Nc2ncnc(Cl)c2N)C[C@H](C)N1C [DDO-2213_014, N-(3′-((5-amino-6-chloropyrimidin-4-yl)amino)-2′-fluoro-4′-((3S,5R)-3,4,5-trimethylpiperazin-1-yl)-[1,1′-biphenyl]-4-yl)cyclohexanecarboxamide]	8.26	186		
C[C@@H]1CN(c2ccc(-c3ccc(NC(=O)CC4CCCCC4)cc3)c(F)c2Nc2ncnc(Cl)c2N)C[C@H](C)N1C [DDO-2213_015, N-(3′-((5-amino-6-chloropyrimidin-4-yl)amino)-2′-fluoro-4′-((3S,5R)-3,4,5-trimethylpiperazin-1-yl)-[1,1′-biphenyl]-4-yl)-2-cyclohexylacetamide]	4.14	85.5		
C[C@H]1CN(c2cc(F)c(-c3ccc(C(=O)NCC4CCOCC4)cc3)cc2Nc2ncnc(Cl)c2N)CCN1C [DDO-2213_016, (S)-5′-((5-amino-6-chloropyrimidin-4-yl)amino)-4′-(3,4-dimethylpiperazin-1-yl)-2′-fluoro-N-((tetrahydro-2H-pyran-4-yl)methyl)-[1,1′-biphenyl]-4-carboxamide]	6.31	12.2		
C[C@@H]1CN(c2cc(F)c(-c3ccc(CN4CCOCC4)cc3)cc2Nc2ncnc(Cl)c2N)C[C@H](C)N1C [DDO-2213_018, 6-chloro-N4-(6-fluoro-4′-(morpholinomethyl)-4-((3S,5R)-3,4,5-trimethylpiperazin-1-yl)-[1,1′-biphenyl]-3-yl)pyrimidine-4,5-diamine]	10.8	110		
C[C@@H]1CN(c2cc(F)c(-c3cccc(CN4CCOCC4)c3)cc2Nc2ncnc(Cl)c2N)C[C@H](C)N1C [DDO-2213_019, 6-chloro-N4-(6-fluoro-3′-(morpholinomethyl)-4-((3S,5R)-3,4,5-trimethylpiperazin-1-yl)-[1,1′-biphenyl]-3-yl)pyrimidine-4,5-diamine]	6.98	215		
C[C@H]1CN(c2cc(F)c(-c3cnc(N4CCOCC4)nc3)cc2Nc2ncnc(Cl)c2N)CCN1C [DDO-2213_020, (S)-6-chloro-N4-(2-(3,4-dimethylpiperazin-1-yl)-4-fluoro-5-(2-morpholinopyrimidin-5-yl)phenyl)pyrimidine-4,5-diamine]	5.21	7.44		
Cc1c(F)c(N)cc(C(=O)Nc2cc(-n3cc(C(=O)NCCCN4CCOCC4)nn3)ccc2N2CCN(C)C(C)C2)c1Cl (stereo not drawn) [DDO-2306]			7.11	
Cc1c(F)c(N)cc(C(=O)Nc2cc(-n3cc(C(=O)NCCCN4CCOCC4)nn3)ccc2N2CCN(C)[C@H](C)C2)c1Cl [DDO-2308]			9.29	
Cc1c(F)c(N)cc(C(=O)Nc2cc(-n3cc(C(=O)NCCCN4CCOCC4)nn3)c(F)cc2N2CCN(C)[C@@H](C)C2)c1Cl [DDO-2312]			24.5	
Cc1c(F)c(N)cc(C(=O)Nc2cc(-n3cc(C(=O)NCCCN4CCOCC4)nn3)c(F)cc2N2CCN(C)[C@H](C)C2)c1Cl [DDO-2313]			40.9	
COc1cc(N2CCN(C)CC2)c(NC(=O)c2cc(N)c(F)c(C)c2Cl)cc1-n1cc(C(=O)NCCCN2CCOCC2)nn1 [DDO-2315]			24.5	
COC(=O)c1cn(-c2cc(NC(=O)c3cc(N)c(F)c(C)c3Cl)c(N3CCN(C)CC3)cc2F)nn1 [DDO-2316]			25.4	
Cc1c(F)c(N)cc(C(=O)Nc2cc(-n3cc(C(=O)OCC4(C)CCCCC4)nn3)ccc2N2CCN(C)CC2)c1Cl [HYBI_014]			2.62	
Cc1cc(C(=O)Nc2cc(-n3cc(C(=O)NCCCN4CCOCC4)nn3)ccc2N2CCN(C)CC2)ccc1F [HYBI_041]			13.2	
CN1CCN(c2ccc(-n3cc(C(=O)NCCCN4CCOCC4)nn3)cc2NC(=O)c2ccc(O)cc2C(F)(F)F)CC1 [HYBI_043]			76	
